One series has as its system male OF1 mice. Nature of the series: test for analgesia: PBQ (phenylbenzoquinone)-induced abdominal tractions. The note with it: 10 mg/kg p.o. It counts as in vivo. As to the method:
The in vivo activity of the compounds of the invention was evaluated in a test for analgesia. Thus, the intraperitoneal (i.p.) administration of PBQ (phenylbenzoquinone, 2 mg/kg in a 0.9% sodium chloride solution comprising 5% of ethanol) to male OF1 mice weighing 25 to 30 g causes abdominal tractions, on average 30 twisting or contracting motions during the period from 5 to 15 minutes after injection. The test compounds are administered, orally (p.o.) or intraperitoneally (i.p.) in suspension in 0.5% Tween 80, 60 minutes or 120 minutes before the administration of PBQ. Under these conditions, the most powerful compounds of the invention reduce by 35 to 70% the number of tractions induced by the PBQ, within a range of doses of between 1 and 30 mg/kg.

Series [1] addresses T1, enzyme FAAH (Fatty Acid amido Hydrolase) (Mus musculus, UniProt O08914).
T1 construct: The membrane homogenates are prepared at the time of use by homogenization of the tissues with a Polytron; from tissue; host or cells: mouse brain (minus the cerebellum), membrane homogenate
T1 sequence (O08914 1-579): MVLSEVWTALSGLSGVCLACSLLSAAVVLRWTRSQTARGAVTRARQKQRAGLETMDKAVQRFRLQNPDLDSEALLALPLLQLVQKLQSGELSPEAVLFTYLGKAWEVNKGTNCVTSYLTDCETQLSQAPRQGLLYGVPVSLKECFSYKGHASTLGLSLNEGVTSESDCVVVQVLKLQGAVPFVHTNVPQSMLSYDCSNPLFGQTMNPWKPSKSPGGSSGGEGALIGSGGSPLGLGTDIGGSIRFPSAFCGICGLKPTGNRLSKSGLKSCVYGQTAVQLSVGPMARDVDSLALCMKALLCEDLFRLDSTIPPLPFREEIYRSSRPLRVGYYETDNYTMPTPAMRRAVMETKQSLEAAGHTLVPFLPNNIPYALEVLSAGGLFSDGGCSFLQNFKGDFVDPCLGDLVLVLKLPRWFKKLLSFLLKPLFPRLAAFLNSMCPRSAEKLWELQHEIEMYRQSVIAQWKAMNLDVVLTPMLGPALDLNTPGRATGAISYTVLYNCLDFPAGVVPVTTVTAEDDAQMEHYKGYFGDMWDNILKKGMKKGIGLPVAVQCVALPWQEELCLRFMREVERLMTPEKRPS
Nature of the series: radioenzymatic test of FAAH inhibition (hydrolysis of ((1-3H)ethanolamine)-anandamide by mouse brain membrane homogenates). The class given is biochemical. Conditions: 10 μM anandamide, 15 minutes at 25° C., read-out: IC50 (concentration which inhibits the control enzymatic activity of FAAH by 50%). As to the method: The compounds of the invention have formed the subject of pharmacological trials which make it possible to determine their inhibitory effect on the enzyme FAAH (Fatty Acid amido Hydrolase).
Thus, mouse brains (minus the cerebellum) are removed and stored at −80° C. The membrane homogenates are prepared at the time of use by homogenization of the tissues with a Polytron in a 10 mM Tris-HCl buffer (pH 8.0) comprising 150 mM NaCl and 1 mM EDTA. The enzymatic reaction is subsequently carried out in 70 μl of buffer comprising bovine serum albumin free from fatty acids (1 mg/ml). The test compounds, at various concentrations, the ((1-^3H)ethanolamine)-anandamide (specific activity of 15-20 Ci/mmol), diluted to 10 μM with non-radiolabelled anandamide, and the membrane preparation (400 μg of frozen tissue per assay) are successively added. After 15 minutes at 25° C., the enzymatic reaction is halted by addition of 140 μl of chloroform/methanol (2:1). The mixture is stirred for 10 minutes and is then centrifuged at 3500 g for 15 minutes. An aliquot (30 μl) of the aqueous phase comprising the (1-^3H)ethanolamine is counted by liquid scintillation.

The results in this text go back to patent US7645757B2, “Derivatives of heteroaryl-alkylcarbamates, methods for their preparation and use thereof as fatty acid amido hydrolase enzyme inhibitors” (sanofi-aventis, priority 2004, dated 2010).

In turn, `CNC(=O)COC(=O)NCCc1ccc(-c2ccccc2)nc1` [Compound 3, 2-(methylamino)-2-oxoethyl 2-(6-phenylpyrid-3-yl)ethylcarbamate] had a melting point of 130 to 132 °C.

In the case of `CNC(=O)COC(=O)NCCCc1cc(-c2ccc(Cl)cc2)ncn1` [Compound 20, 2-(methylamino)-2-oxoethyl 3-[6-(4-chlorophenyl)pyrimidin-4-yl]propylcarbamate], the melting point fell in the range of 147 to 149 °C.

Consider `CNC(=O)COC(=O)NCCCc1cc(-c2ccc(Cl)cc2)no1` [Compound 29, 2-(methylamino)-2-oxoethyl 3-[3-(4-chlorophenyl)isoxazol-5-yl]propylcarbamate], for which the melting point was 158 to 160 °C.

Take `CNC(=O)COC(=O)NCCCc1cc(-c2ccc(-c3ccccc3)cc2)no1` [Compound 30, 2-(methylamino)-2-oxoethyl 3-[3-(4-phenylphenyl)isoxazol-5-yl]propylcarbamate]: the melting point was 198 to 200 °C.

Molecule `NC(=O)COC(=O)NCCCCc1ccncc1` [Compound 37, 2-amino-2-oxoethyl 4-(pyrid-4-yl)butylcarbamate] yielded a melting point of 124 to 126 °C.

In the case of `CNC(=O)COC(=O)NCCCCc1cc(-c2ccc(Cl)cc2)no1` [Compound 48, 2-(methylamino)-2-oxoethyl 4-[3-(4-chlorophenyl)isoxazol-5-yl]butylcarbamate], the figures for the “reduction of the number of tractions induced by the PBQ” value with male OF1 mice (administered 60 minutes before PBQ) and in the series on male OF1 mice (administered 120 minutes before PBQ) were 53% and 62%, respectively.

`CNC(=O)COC(=O)NCCCCn1ccc2ccccc21` [Compound 56, 2-(methylamino)-2-oxoethyl 4-(1H-indol-1-yl)butylcarbamate] came in with a melting point of 64 to 67 °C.

`CNC(=O)COC(=O)NCCCCn1ccc2cccnc21` [Compound 58, 2-(methylamino)-2-oxoethyl 4-(1H-pyrrolo[2,3-b]pyrid-1-yl)butylcarbamate] had a melting point of 52 to 54 °C.

Take `NC(=O)COC(=O)NCCCCCc1cncc2ccccc12` [Compound 68, 2-amino-2-oxoethyl 5-(isoquinolin-4-yl)pentylcarbamate]: the IC50 in series [1] came out at 267 nM.

As to `NC(=O)COC(=O)NCCCC#Cc1cccc2ccccc12` [Compound 71, 2-amino-2-oxoethyl [5-(naphth-1-yl)pent-4-yn-1-yl]carbamate], the melting point is 105 to 108 °C.

One may read the melting point as the temperature, or range, at which the solid turns liquid.
